# From BindingDB's records for doi:10.7270/Q2WS8RVZ (Burnham Center For Chemical Genomics, 2012)
# Molecular target: Endothelial PAS domain-containing protein 1 (Homo sapiens, UniProt Q99814)
# Sequence (Q99814 whole entry, the tested form may be a part): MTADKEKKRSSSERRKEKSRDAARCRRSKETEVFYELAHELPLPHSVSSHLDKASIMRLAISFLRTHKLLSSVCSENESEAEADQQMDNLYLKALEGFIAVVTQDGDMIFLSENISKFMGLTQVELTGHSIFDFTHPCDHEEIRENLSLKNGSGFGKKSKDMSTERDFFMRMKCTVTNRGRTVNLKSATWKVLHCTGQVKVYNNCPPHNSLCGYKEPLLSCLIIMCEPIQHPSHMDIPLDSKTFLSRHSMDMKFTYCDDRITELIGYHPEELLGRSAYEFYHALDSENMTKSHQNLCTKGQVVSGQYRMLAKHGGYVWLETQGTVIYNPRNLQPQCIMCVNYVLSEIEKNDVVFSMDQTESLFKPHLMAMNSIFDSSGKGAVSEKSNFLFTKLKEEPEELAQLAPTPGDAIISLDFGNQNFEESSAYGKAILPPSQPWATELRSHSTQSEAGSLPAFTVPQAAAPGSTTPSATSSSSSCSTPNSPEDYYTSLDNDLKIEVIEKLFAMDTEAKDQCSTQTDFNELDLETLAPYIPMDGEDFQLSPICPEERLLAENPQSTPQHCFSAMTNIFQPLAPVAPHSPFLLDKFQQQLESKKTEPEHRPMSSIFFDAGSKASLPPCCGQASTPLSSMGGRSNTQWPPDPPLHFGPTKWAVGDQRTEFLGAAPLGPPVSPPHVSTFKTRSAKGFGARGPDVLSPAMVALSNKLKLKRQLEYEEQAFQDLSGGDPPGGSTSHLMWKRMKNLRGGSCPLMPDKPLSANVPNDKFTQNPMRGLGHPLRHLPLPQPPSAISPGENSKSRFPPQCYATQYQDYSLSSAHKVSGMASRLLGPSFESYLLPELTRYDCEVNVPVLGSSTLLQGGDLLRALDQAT
row,SMILES,IC50
1,Cc1ccc(CN=Nc2cccc(C(=O)O)c2)s1,64.5 µM
2,CC(C)(C)c1ccc(CN=Nc2ccc(C(=O)O)cc2)cc1,49.6 µM
3,O=C(O)c1ccc(N=NCc2ccc3ncccc3c2)cc1,64.5 µM
4,Cc1nn(-c2ccccc2)c(Cl)c1CN=Nc1ccc(Cl)c(C(=O)O)c1 [2-chloro-5-[2-[(5-chloro-3-methyl-1-phenylpyrazol-4-yl)methylidene]hydrazinyl]benzoic acid],64.5 µM
5,Cc1nn(-c2ccccc2Cl)c(Cl)c1CN=Nc1cccc(C(=O)O)c1 [3-[2-[[5-chloro-1-(2-chlorophenyl)-3-methylpyrazol-4-yl]methylidene]hydrazinyl]benzoic acid],23.9 µM
6,COc1cccc(C/N=N/c2ncccc2[N+](=O)[O-])c1OC [SMR000461041],8.21 µM
7,"CCOC(=O)Cc1csc(N=NCc2ccc(C(F)(F)F)cc2)n1 [ethyl 2-[2-[(2E)-2-[[4-(trifluoromethyl)phenyl]methylidene]hydrazinyl]-1,3-thiazol-4-yl]ethanoate]",49.6 µM
8,O=C(O)c1ccc(N=NCc2ccc(C(F)(F)F)cc2)cc1 [sulfuric acid;4-[(N'E)-N'-[4-(trifluoromethyl)benzylidene]hydrazino]benzoic acid],9.84 µM

# Stronger by IC50, values ahead:
row,IC50,SMILES
1,5.74 µM,O=C(O)c1cccc(N=NCc2cccs2)c1 [3-[(N'E)-N'-(2-thenylidene)hydrazino]benzoic acid]
2,5.57 µM,c1ccc(CN=Nc2ccc3ccccc3n2)nc1 [SMR002048648]
3,5.33 µM,CSc1ccc(CN=Nc2cccc(C(=O)O)c2)cc1 [3-[(N'E)-N'-[4-(methylthio)benzylidene]hydrazino]benzoic acid]
4,5.03 µM,O=C(O)c1cc(N=NCc2ccc3c(c2)OCCO3)ccc1Cl [SMR000242957]
5,4.29 µM,COc1cc(CN=O)ccc1OCc1ccc(C(=O)O)cc1 [4-[[4-(hydroximinomethyl)-2-methoxy-phenoxy]methyl]benzoic acid]
6,4.22 µM,CCOc1cc(CN=Nc2cccc(C(=O)O)c2)ccc1OC(=O)c1ccccc1 [3-[(N''E)-N''-(4-benzoyloxy-3-ethoxy-benzylidene)hydrazino]benzoic acid]
7,4.08 µM,CC(C)c1ccc(CN=Nc2ccc(C(=O)O)cc2)cc1 [4-[2-[(4-propan-2-ylphenyl)methylidene]hydrazinyl]benzoic acid]
